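All cell lines were grown in 96-well plates and treated with compound for 48 hours. The concentration for full growth arrest is given as TGI.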

Data on four compounds can be found in PubChem BioAssay (NCI).

Among the test systems are HOP-18 NSCLC; KM20L2 colon; M19-MEL melanoma; XF 498 CNS; LXFL 529 NSCLC; SN12K1 renal; P388/ADR leukemia; P388 leukemia.
What all share (assay): NCI tumour cell line growth inhibition, 48 h

With `O=C(Oc1ccc(Cl)cc1[N+](=O)[O-])c1ccccc1`, the TGI in the assay with HOP-18 NSCLC, in the assay on KM20L2 colon, in the assay on M19-MEL melanoma, in the assay on XF 498 CNS and in the assay on LXFL 529 NSCLC was more than 100 µM each time.

For `C=C1C(=O)OC2CC1CCC1(C)OC1CCC(C)=CCCC2(C)O` (centres undefined), the TGI with SN12K1 renal stood at 11.9 µM; in the assay on HOP-18 NSCLC it was 3.37 µM; in the assay with P388/ADR leukemia, 10.8 µM; with KM20L2 colon it was 8.58 µM; in the assay on M19-MEL melanoma it was 11.8 µM; in the assay on XF 498 CNS, 8.47 µM. For the same compound, the TGI in the assay on P388 leukemia came to 3.06 µM.

`COc1ccc(OC)c(CC(C)N)c1` (centres undefined): the TGI in the assay with HOP-18 NSCLC, in the assay on KM20L2 colon, in the assay on M19-MEL melanoma, with XF 498 CNS and with LXFL 529 NSCLC was more than 100 µM each time.

Regarding `O=C1OC2CC=CC1C2` (centres undefined), the TGI with SN12K1 renal, in the assay with HOP-18 NSCLC, with P388/ADR leukemia, with KM20L2 colon, in the assay on M19-MEL melanoma and with XF 498 CNS was more than 100 µM throughout. In addition, the TGI in the assay on P388 leukemia is more than 100 µM.
